Results: patent US20140057841A1, “HUMAN INSULIN AND ANALOG CONJUGATE THEREOF” (Chongqing Fagen Biomedical Inc., priority 2011, published 2014)
Read-outs that look alike come from different tables or passages of the source.

Tests used:
[1] = system: Type 1 diabetes model of KunMing mice; assay: Blood sugar lowering in mice Type 1 diabetes model; format: in vivo; conditions: subcutaneous 0.25 mg/kg, STZ mice; for time the blood sugar lowering effect may sustain: empty stomach blood sugar
Procedure: 70 healthy KunMing male SPF mice (purchased from the Third Military Medical Univ., China) with body weight of 25-30 g were fed with water only and no food for 14 hours, and then subject to 120 mg/kg of rapid intraperitoneal injection of streptozotocin (STZ) solution (4.8 mg/ml) that was prepared with citric acid- trisodium citrate buffer, to establish a Type 1 diabetes model. After the injection, the mice were immediately fed with food and water. After 48 hours of model establishing, blood was sampled from caudal vein, and blood sugar value was detected with glucometer (Bayer's Fast Glucometer) after fasting for 2 hours, wherein a blood sugar value of >11.1 mmol/L indicates successful modeling. […] Groups B, C, and D were respectively subject to subcutaneous administration by a dosage of 0.25 mg/kg, and group A was injected with isovolumetric solvent. Before administration (i.e., 0 hour) and after 1, 2, 6, 10, 15, 18, and 24 hours of administration, blood was sampled from caudal vein for the detection of empty stomach (fasting for 2 hours) blood sugar value. The average blood sugar value was calculated and time activity curve was made (FIG. 4).
The average blood sugar value was calculated and time activity curve was made (FIG. 5).

[2] = system: Type 1 diabetes model of New Zealand albino rabbits; assay: Blood sugar lowering experiment on Type 1 diabetes model (IDDM) rabbits; format: in vivo; conditions: subcutaneous 0.2 mg/kg; for hypoglycemic activity: rabbit Type 1 diabetes model; for time the blood sugar lowering effect may sustain: tetraoxypyrimidine rabbits, empty stomach blood sugar
Procedure: 40 male New Zealand albino rabbits (purchased from the Third Military Medical Univ., China) with body weight of 2-3 kg were fed with water only and no food for 24 hours, and then subject to 5 ml/kg of ear vein single injection of tetraoxypyrimidine solution (with concentration of 20 mg/ml) to establish models. After the injection, the rabbits were immediately fed with food and water. After 3 days of model establishing, blood was sampled every day from ear vein after fasting for 6 hours, and blood sugar value was detected with glucometer, wherein a blood sugar value of >11.1 mmol/L indicates successful modeling. […] Groups B, C, and D were respectively subject to subcutaneous administration by a dosage of 0.2 mg/kg, and group A was injected with isovolumetric solvent. Before administration (i.e., 0 hour) and after 1, 2, 4, 8, 12, 24, 36, 48, 60, 72, 84, and 96 hours of administration, blood was sampled from ear vein for the detection of empty stomach (fasting for 6 hours) blood sugar value (Fast Glucometer, Bayer). The average blood sugar value was calculated and time activity curve was made (FIG. 6).
The average blood sugar value was calculated and time activity curve was made (FIG. 7).

[3] = system: Beagle dog Type 1 diabetes model; assay: Blood sugar lowering experiment of DesB30-20 k conjugate on Beagle dog Type 1 diabetes model; format: in vivo, Beagle dogs
Procedure: 20 healthy Beagle dogs (purchased from the Third Military Medical Univ., China) with body weight of 5-8 kg were fed with water only and no food for 24 hours, and then subject to foreleg subcutaneous vein injection of tetraoxypyrimidine solution (200 mg/ml) and STZ solution (120 mg/ml), with respective dosage of 50 mg/kg and 30 mg/kg, to establish Type 1 diabetes models. After the injection, the dogs were immediately fed with food and water. After 72 hours of model establishing, successful modeling was indicated by the signs of polyphagia, polydipsia, polyuria, lose weight, and blood sugar value of >11.1 mmol/L. 12 modeled dogs were randomly divided into 3 groups, 4 for each group (group A, control, group B, administration by 0.05 mg/kg, and group C, administration by 0.10 mg/kg), and subject to subcutaneous administration for one time. After 0, 2, 6, 12, 18, 24, 36, 48, 72, 96, and 120 hours of administration, blood was sampled from hindlimb vein for the detection of empty stomach (fasting for 6 hours) blood sugar value (GOD-POD method). The average blood sugar value was calculated and single administration time activity curve was made (FIG. 8). […] Then, the model animals were tested with multiple times of subcutaneous administration, with an interval of 72 hours (with a dosage of 0.05 mg/kg, 0.10 mg/kg, or isovolumetric solvent) for 6 times. From Day 1 to Day 21 after the administration, empty stomach blood sugar value was detected every three days, and blood was sampled after the last administration for pharmacokinetics experiments. […] The durations of hypoglycemic activity for single and multiple administrations are basicly the same, i.e., 72 hours. During the multiple administrations, the empty stomach blood sugar value of animals in administration groups were kept in average with about 5 mmol/L, whereas the empty stomach blood sugar value of animals in control group were kept in average with about 25 mmol/L.

[4] = in human body; cited from earlier work
[5] = in animals; cited from earlier work

Substance | hypoglycemic activity [1] | time the blood sugar lowering effect may sustain [1] | hypoglycemic activity [2] | time the blood sugar lowering effect may sustain [2] | further results
DesB30-5K: DesB30 recombinant human insulin coupled at the ε-amino group of Lys B29 to 5K mPEG-SPA via amide bond | significant hypoglycemic activity | about 8 hours | significant hypoglycemic activity | about 15 hours | 
DesB30-10K: DesB30 recombinant human insulin coupled at the ε-amino group of Lys B29 to 10K mPEG-SPA via amide bond | significant hypoglycemic activity | about 12 hours | significant hypoglycemic activity | about 30 hours | 
DesB30-20K: DesB30 recombinant human insulin coupled at the ε-amino group of Lys B29 to 20K mPEG-SPA via amide bond | significant hypoglycemic activity | about 18 hours | significant hypoglycemic activity | about 55 hours | hypoglycemic activity ([3]; Beagle dogs Type 1 diabetes model, 0.05 and 0.10 mg/kg): significant hypoglycemic activity; average empty stomach blood sugar value during multiple administrations ([3]; administration groups (0.05 or 0.10 mg/kg s.c., every 72 hours, 6 times), control about 25 mmol/L): about 5 mmol/L; time blood sugar is effectively lowered ([3]; single subcutaneous administration, 0.10 mg/kg): 72 h; duration of hypoglycemic activity for single and multiple administrations ([3]; single, and multiple subcutaneous administrations (interval 72 hours, 6 times)): 72 h
Ins-5K: recombinant human insulin conjugate with 5K mPEG-SPA at Lys B29, prepared as in Example 2 |  | about 8 hours |  | about 15 hours | 
Ins-10K: recombinant human insulin conjugate with 10K mPEG-SPA at Lys B29, prepared as in Example 3 |  | about 12 hours |  | about 35 hours | 
Ins-20K: recombinant human insulin conjugate with 20K mPEG-SPA at Lys B29, prepared as in Example 4 |  | about 18 hours |  | about 55 hours | 
insulin detemir |  |  |  |  | duration of activity [4]: 24 h; duration of activity [5]: 12 h
